The text below walks through data of US9409906B2, “Pyrimido[4,5-B]indole derivatives and use thereof in the expansion of hematopoietic stem cells” (UNIVERSITÉ DE MONTRÉAL, priority 2012, dated 2016).

In test [1] the test system is CD34+CD45RA− cells. In words: Dose-response assay: 50% increase in CD34+CD45RA− cell count vs vehicle (EC50). The class given is cell-based, human. The settings on record: concentration giving 50% increase in CD34+CD45RA− cell count vs vehicle (DMSO), dose-response 1 nM to 5000 nM; for EC50: Homo sapiens, read-out: Biological data (EC50)*. On the procedure:
The following biological assays were used to assess the effect of the compounds of the invention on hematopoietic stem cell expansion. Culture medium: The culture medium used consisted of serum-free medium supplemented with the following recombinant cytokines: interleukin-6, thrombopoietin, Flt-3 ligand, and stem cell factor, each at a final concentration of 100 ng/ml, in the presence of vehicle (DMSO), positive control (SR1), or compound of the invention or a combination of compounds.

The subject of test [2] is CD34+ mobilized peripheral blood (mPB) cells. Put plainly: Ex vivo expansion of mobilized peripheral blood-derived CD34+ and CD34+CD45RA− cells (FIG. 5A). In kind it is cell-based, human. The settings on record: 12-days culture. An excerpt:
FIG. 5: A) Compound 1 expands mobilized peripheral blood-derived CD34+ and CD34+CD45RA− cell populations ex vivo. […] This observation was enhanced with the co-treatment with SR1.
[…]. The level of expansion is the same whether cultures are initiated with Compound 1, SR1, Compound 1+SR1, or control DMSO. […] […].

The subject of test [3] is CD34+ mobilized peripheral blood cells. In words: FACS analysis of differentiation of CD34+ mobilized peripheral blood cells (FIG. 4A). The class given is cell-based, human. The settings on record: 7 day expansion, optimal levels, vs DMSO control. From the text:
FIG. 4A illustrates the impact of Compound 1 on mobilized peripheral blood cell differentiation. Following a 7 day expansion, a relatively pure (>85% CD34^+) population of mobilized peripheral blood was exposed to control the (DMSO) or Compound 1 or SR1 or Compound 1+SR1.

In test [4] the test system is Mobilized peripheral blood CD34(+) cells. Put plainly: Growth factor (Flt3, SCF, TPO) requirement / mitogen test (FIG. 3). In kind it is cell-based, human. On the procedure: FIG. 3: Flt3, SCF, and TPO are required for compound 1 mediated stem cell expansion. Mobilized peripheral blood CD34(+) cells were cultured for 7 days in the presence or absence of the growth factors (Flt3+SCF+TPO).
This indicate that akin to SR1, Compound 1's effect on maintenance of primitive HSC phenotype ex vivo is not due to a mitogenic effect on this population but rather on the prevention of cell differentiation.

In test [5] the test system is CD34+CD45RA− cord blood cells. In words: Ex vivo expansion of cord blood-derived CD34+ and CD34+CD45RA− cells (FIG. 5B, 5C). In kind it is cell-based, human. The settings on record: cord blood.
The subject of test [6] is CD34+ mPB cells transplanted in NSG mice. In words: Engraftment of cultured CD34+ mPB cells in NSG mice. The settings on record: cells cultured ten days; outcome of 50,000 and 500,000 cells; 13 week post-transplantation.
Test [7] concerns CD34+ CB cells transplanted in NSG mice. In words: Engraftment of cultured CD34+ cord blood cells in NSG mice (FIG. 7). Particulars: outcome of 5,000 CD34+ CB cells, 7 days culture; 8-weeks post transplantation (FIG. 7A).
Excerpt: These experiments were done in short term cultures i.e. 7 days.

`COC(=O)c1ccc2c(c1)[nH]c1nc(Cc3cccc(C4(C(F)(F)F)N=N4)c3)nc(NCCCN(C)CCCNC(=O)CCCC[C@@H]3SC[C@@H]4NC(=O)N[C@@H]43)c12` [Compound 53, methyl 4-((3-(methyl(3-(5-((3aS,4S,6aR)-2-oxohexahydro-1H-thieno[3,4-d]imidazol-4-yl)pentanamido)propyl)amino)propyl)amino)-2-(3-(3-(trifluoromethyl)-3H-diazirin-3-yl)benzyl)-9H-pyrimido[4,5-b]indole-7-carboxylate]: the “Biological data (EC50)*” value in test [1] is listed as “F (F=compound showed >1.3 fold expansion)”.
As for `COC(=O)c1ccc2c(c1)[nH]c1nc(Cc3ccccc3)nc(NCCCN(C)CCCNc3nc(Cc4ccccc4)nc4[nH]c5cc(C(=O)OC)ccc5c34)c12` [Compound 51, dimethyl 4,4′-(((methylazanediyl)bis(propane-3,1-diyl))bis(azanediyl))bis(2-benzyl-9H-pyrimido[4,5-b]indole-7-carboxylate)], the EC50 in test [1] is under 0.1 µM.
Consider `CC(C)n1cnc2c(NCCc3ccc(O)cc3)nc(-c3csc4ccccc34)nc21` [SR1, StemRegenin1, reference compound], for which, in test [2], the “total cell count increase above the input” value was “about 20 fold”. Besides, the “loss of CD34 cell surface expression” value in test [3] is “partly abrogated”. Moreover, the “induction of cell proliferation in the absence of growth factors (Flt3, TPO, SCF)” value in test [4] was “not able to induce cell proliferation”. Besides, the “expansion of CD34+CD45RA− cells” value in test [5] (12-days) is given as “less than 20 fold”. Further, the “total cell expansion vs DMSO (control)” value in test [5] (twelve days) is “the same”. In test [6], the “human hematopoietic engraftment (human CD45+ cells in BM)” value is given as “consistently better than DMSO”. In test [7], the “human CD45+ engraftment / reconstitution activity” value was “human CD45+ engraftment”.
As for `COC(=O)c1ccc2c(c1)[nH]c1nc(Cc3cccc(C(O)C(F)(F)F)c3)nc(NCCCN3CCCCC3)c12` (stereo not shown) [Compound 34, methyl 4-((3-(piperidin-1-yl)propyl)amino)-2-(3-(2,2,2-trifluoro-1-hydroxyethyl)benzyl)-9H-pyrimido[4,5-b]indole-7-carboxylate], in test [1], the EC50 is under 0.1 µM.
